In PubChem BioAssay AID651630 (Sanford-Burnham Center for Chemical Genomics, 2012):
The source made the active and inactive calls.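 How the source made its calls: active means lipid-stain IC50 at or below a set limit, with nuclear-stain toxicity IC50 at least five times higher; inactive means the rest.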

Tests used:
[1] = test system: TAG; assay: TAG lipid buildup inhibition with viability readout – cell-based, panel, Nile Red and DAPI fluorescence, H9c2, dose response (AID 651630); conditions: H9c2 cells, Nile Red TAG fluorescence, oleic acid;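 further: cells exposed to compound overnight before fixation and staining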
[2] = test system: DAPI; assay: as above; conditions: H9c2 cells, DAPI nuclear fluorescence (cytotoxicity counter-readout), oleic acid

SMILES | IC50 ([1]; mean of runs) | IC50 ([1]; run 1) [µM] | IC50 ([1]; run 2) [µM] | IC50 cytotoxicity (DAPI nuclear signal decrease) ([2]; mean of runs) | IC50 cytotoxicity (DAPI nuclear signal decrease) ([2]; run 1) [µM] | IC50 cytotoxicity (DAPI nuclear signal decrease) ([2]; run 2) [µM]
CC(C)C[C@H]1CNC(=S)N1CC1CCCN1C[C@H](CC(C)C)N1C[C@H](CC(C)C)N(CC2CCCCCC2)C1=S (some centres not stated) | > 25 µM (inactive) | > 25 | > 25 | > 25 µM (inactive) | > 25 | > 25
CC(C)C[C@H]1C(=O)N2CCC[C@H]2[C@]2(O)O[C@](NC(=O)[C@@H]3C=C4c5cccc6[nH]c(Br)c(c56)CC4N(C)C3)(C(C)C)C(=O)N12 (some centres not stated) | 6.72 µM | 6.96 | 6.47 | > 25 µM (inactive) | > 25 | > 25
COc1ccc2c(c1)c(CC(=O)Nc1ccc(C)cc1)c(C)n2C(=O)c1ccc(Cl)cc1 |  | 20.1 | > 25 | > 25 µM (inactive) | > 25 | > 25
O=C(Nc1ccc(-c2csc(Nc3cccc(C(F)(F)F)c3)n2)cc1)c1cc([N+](=O)[O-])cc(C(F)(F)F)c1 | 10.9 µM | 10.8 | 11.1 | > 25 µM (inactive) | > 25 | > 25
COCCCNC(=O)C(=O)Nc1ccc2c(c1)N(S(=O)(=O)c1cccs1)CCC2 |  | 7.64 | > 25 | > 25 µM (inactive) | > 25 | > 25
Nc1c(C(=O)Nc2ccccc2)c2nc3ccccc3nc2n1CCCN1CCOCC1 | 4.64 µM | 4.97 | 4.31 |  | > 25 | > 25
S=C(N/N=C/c1cccs1)NC1CC2CCC1C2 (configuration not stated) | 8.53 µM | 4.71 | 12.3 | > 25 µM (inactive) | > 25 | > 25
COc1ccc(NS(=O)(=O)c2cccc(C(=O)N/N=C/c3cn(-c4ccccc4)nc3-c3ccccc3)c2)cc1 | 8.79 µM | 7.63 | 9.96 | > 25 µM (inactive) | > 25 | > 25
Cc1cc(N/N=C\c2ccc(Br)cc2)nc(-n2nc(C)cc2C)n1 | > 25 µM (inactive) | > 25 | > 25 | > 25 µM (inactive) | > 25 | > 25
Cc1ccsc1-c1nc(C(N)=O)c2[nH]c(=O)n(-c3ccc(Cl)cc3)c2n1 | > 25 µM (inactive) | > 25 | > 25 | > 25 µM (inactive) | > 25 | > 25
COc1ccc(C2=CC(c3ccc4c(c3)OCO4)c3c(c4ccccc4oc3=O)O2)cc1OC (configuration not stated) | 18.8 µM (inactive) | 20.6 | 17 | > 25 µM (inactive) | > 25 | > 25
Nc1ccc2ccccc2c1N=Nc1ccccc1 | 9.51 µM | 8.88 | 10.1 | > 25 µM (inactive) | > 25 | > 25
COc1cc(/C=C2\Oc3ccc(C#Cc4ccc(O)cc4)cc3C2=O)cc(OC)c1 | 3.01 µM | 3.1 | 2.92 | 4.72 µM (inactive) | 5.07 | 4.36
Nc1ncnc2c1ncn2C1C=C(CO)C(O)C1O (configuration not stated) | 12.5 µM | 11.4 | 13.7 | > 25 µM (inactive) | > 25 | > 25
COc1ccc(OC)c(C2CC(c3ccccc3)=NN2C(=S)Nc2ccccc2)c1 (configuration not stated) | > 25 µM (inactive) | > 25 | > 25 | > 25 µM (inactive) | > 25 | > 25
Cc1ccc(NC(=O)CSc2nnc(C)c(=O)n2N)cc1Cl |  | 24 | > 25 | > 25 µM (inactive) | > 25 | > 25
